# Assay results taken from patent publication US7157457B2, “Compounds useful in the treatment of inflammatory diseases” (Glaxo Group Limited, priority 2000, dated 2007).
# Where a name gives a salt, the structure may show the parent alone.
# Tested on: ovalbumin sensitised guinea pigs
# Assay: Guinea-pig ovalbumin model: eosinophil infiltration and hyper-reactivity
# Assay type: in vivo
# Conditions: 0.2–20 mg/kg, oral route
# Experimental: (c) Guinea-pig Ovalbumin Model
# Inhibition of Eosinophil Infiltration and Hyper-Reactivity in the Guinea Pig
# In a method based on that described by Danahay et al., 1997, ovalbumin sensitised guinea pigs were dosed with mepyramine (30 mg kg^−1 ip) to protect against anaphylactic bronchospasm. Test compounds, dissolved in 10% DMSO and 90% PEG200, were given by the oral route, 30 minutes before ovalbumin challenge (10 minutes breathing of an aerosol generated from a 0.5% solution of ovalbumin). Hyper-reactivity of the airways to the thromboxane mimetic U46619, was measured 24 hours after ovalbumin challenge in unrestrained animals using a whole body plethysmograph (Buxco Ltd., USA). The guinea pigs were then sacrificed and the lungs lavaged. Total and differential leukocyte counts were then obtained for the bronchoalveolar lavage fluid and the percentage reduction in eosinophil accumulation determined (Sanjar et al., 1992). Data was presented as the inhibitory effect of the specified dose expressed as a percentage of the vehicle control response.
row,Compound,inhibition of lung eosinophilia
1,"O=C(NCC1CN(Cc2ccc(Cl)c(Cl)c2)CCO1)Nc1ccc(Cl)cc1 (stereo not shown) [Example 14, N-(4-Chlorophenyl)-N′-{[4-(3,4-dichlorobenzyl)morpholin-2-yl]methyl}urea]",showed inhibition

# Same assay, conditions: 0.2–20 mg/kg, oral route, hyper-reactivity to U46619
row,Compound,inhibition of bronchial hyperreactivity
1,"O=C(NCC1CN(Cc2ccc(Cl)c(Cl)c2)CCO1)Nc1ccc(Cl)cc1 (stereo not shown) [Example 14, N-(4-Chlorophenyl)-N′-{[4-(3,4-dichlorobenzyl)morpholin-2-yl]methyl}urea]",showed inhibition

# Target: T1, CCR-3 (Homo sapiens, UniProt P51677)
# T1 sequence (P51677 1-355): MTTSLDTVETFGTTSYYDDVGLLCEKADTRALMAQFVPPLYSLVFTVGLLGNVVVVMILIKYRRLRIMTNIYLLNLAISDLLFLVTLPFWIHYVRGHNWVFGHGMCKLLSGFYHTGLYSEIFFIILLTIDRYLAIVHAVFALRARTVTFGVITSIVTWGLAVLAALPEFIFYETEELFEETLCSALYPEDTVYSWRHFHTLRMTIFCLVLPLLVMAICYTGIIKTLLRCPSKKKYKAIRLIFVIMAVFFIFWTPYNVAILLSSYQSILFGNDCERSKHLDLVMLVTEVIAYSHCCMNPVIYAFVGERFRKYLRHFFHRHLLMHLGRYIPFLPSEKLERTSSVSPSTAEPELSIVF
# Assay: CCR-3 competition binding SPA ([125I]eotaxin)
# Set-up: expressed in transfected cells
# Conditions: inhibition of [125I]eotaxin binding to membranes of K562 cells stably expressing CCR-3; mean of at least two experiments; read-out: CCR-3 Binding Assay (pIC50) (converted)
# Experimental: A CCR-3 competition binding SPA (scintillation proximity assay) was used to assess the affinity of novel compounds for CCR-3. Membranes prepared from K562 cells stably expressing CCR-3 (2.5 μg/well) were mixed with 0.25 mg/well wheat-germ agglutinin SPA beads (Amersham) and incubated in binding buffer (HEPES 50 mM, CaCl2 1 mM, MgCl2 5 mM, 0.5% BSA) at 4° C. for 1.5 hr. Following incubation, 20 pM of [^125I] eotaxin (Amersham) and increasing concentrations of compound (1 pM to 30 μM) were added and incubated in a 96 well plate for 2 hr at 22° C. then counted on a Microbeta plate counter. The total assay volume was 100 μl. Competition binding data were analysed by fitting the data with a four parameter logistic equation. Data are presented as the mean pIC50 values (negative logarithm of the concentration of compound which inhibits [^125I]eotaxin binding by 50%) from at least two experiments.
row,Compound,IC50 [nM]
1,"CNC(=O)c1ccc(CNC(=O)NC[C@H]2CN(Cc3ccc(Cl)c(Cl)c3)CCO2)cc1 [Example 149, 4-({[({[(2S)-4-(3,4-dichlorobenzyl)morpholin-2-yl]methyl}amino)carbonyl]amino}methyl)-N-methylbenzamide]",15.8
2,"O=C(NCC1CN(Cc2ccc(Cl)c(Cl)c2)CCO1)Nc1ccc(OC(F)F)cc1 (stereo not shown) [Example 16, N-{[4-(3,4-Dichlorobenzyl)morpholin-2-yl]methyl}-N′-[4-(difluoromethoxy)phenyl]urea]",741
3,"NC(=O)c1ccc(CNC(=O)NC[C@H]2CN(Cc3ccc(Cl)c(Cl)c3)CCO2)cc1 [Example 54, 4-({[({[(2S)-4-(3,4-Dichlorobenzyl)morpholin-2-yl]methyl}amino)carbonyl]amino}methyl)benzamide]",11
4,"Cc1ccc(CNC(=O)NCC2CN(Cc3ccc(Cl)c(Cl)c3)CCO2)cc1 (stereo not shown) [Example 3, N-{[4-(3,4-Dichlorobenzyl)morpholin-2-yl]methyl}-N′-(4-methylbenzyl)urea]",69.2
5,"C=Cc1ccc(CN2CCOC(CNC(=O)Nc3ccc(Cl)cc3)C2)cc1 (stereo not shown) [Example 38, N-(4-Chlorophenyl)-N′-{[4-(4-vinylbenzyl)morpholin-2-yl]methyl}urea]",1910
6,"Cn1nnc(CNC(=O)NC[C@H]2CN(Cc3ccc(Cl)c(Cl)c3)CCO2)n1 [Example 136, N-{[(2S)-4-(3,4-dichlorobenzyl)morpholin-2-yl]methyl}-N′-[(2-methyl-2H-tetraazol-5-yl)methyl]urea]",15.8
7,"O=C(NCC1CN(Cc2ccc(Cl)c(Cl)c2)CCO1)Nc1ccc(SC(F)(F)F)cc1 (stereo not shown) [Example 34, N-{[4-(3,4-Dichlorobenzyl)morpholin-2-yl]methyl}-N′-{4-[(trifluoromethyl)thio]phenyl}urea]",2000

# Other lines, results leading:
row,IC50 [nM],Compound
1,955,O=C(NCC1CN(Cc2cccc(I)c2)CCO1)Nc1ccc(Cl)cc1 (stereo not shown) [Example 21]
2,10500,"CCOC(=O)C(c1ccccc1)N1CCOC(CNC(=O)Nc2ccc(Cl)cc2)C1 (stereo not shown) [Example 44, Ethyl {2-[({[(4-chlorophenyl)amino]carbonyl}amino)methyl]morpholin-4-yl}(phenyl)acetate]"
3,3800,"O=C(NCC1CN(Cc2ccc(Cl)s2)CCO1)Nc1ccc(Cl)cc1 (stereo not shown) [Example 37, N-(4-Chlorophenyl)-N′-({4-[(5-chlorothien-2-yl)methyl]morpholin-2-yl}methyl)urea]"
4,1000,"N#Cc1ccc(NC(=O)NCC2CN(Cc3ccc(Cl)c(Cl)c3)CCO2)cc1 (stereo not shown) [Example 25, N-(4-Cyanophenyl)-N′-{[4-(3,4-dichlorobenzyl)morpholin-2-yl]methyl}urea]"
5,117,"N#Cc1cccc(NC(=O)NCC2CN(Cc3ccc(Cl)c(Cl)c3)CCO2)c1 (stereo not shown) [Example 5, N-(3-Cyanophenyl)-N′-{[4-(3,4-dichlorobenzyl)morpholin-2-yl]methyl}urea]"
6,66.1,"O=C(NCc1ccc(Cl)cc1)NCC1CN(Cc2ccc(Cl)c(Cl)c2)CCO1 (stereo not shown) [Example 47, N-(4-Chlorobenzyl)-N′-{[4-(3,4-dichlorobenzyl)morpholin-2-yl]methyl}urea]"
7,1.78,"CC(=O)Nc1cccc(CNC(=O)NCC2CN(Cc3ccc(Cl)c(Cl)c3)CCO2)c1 (stereo not shown) [Example 52, N-[3-({[({[4-(3,4-Dichlorobenzyl)morpholin-2-yl]methyl}amino)carbonyl]amino}methyl)phenyl]acetamide Formate]"
8,832,"O=C(NCC1CN(Cc2ccc3ccccc3c2)CCO1)Nc1ccc(Cl)cc1 (stereo not shown) [Example 23, N-(4-Chlorophenyl)-N′-{[4-(2-naphthylmethyl)Morpholin-2-yl]methyl}urea]"
9,955,"O=C(NCC1CN(Cc2ccc(Cl)c(Cl)c2)CCO1)Nc1cccc(C(F)(F)F)c1 (stereo not shown) [Example 22, N-{[4-(3,4-Dichlorobenzyl)morpholin-2-yl]methyl}-N′-[3-(trifluoromethyl)phenyl]urea]"
10,661,"O=C(NCC1CN(Cc2ccc(Cl)c(Cl)c2)CCO1)Nc1ccc(Cl)cc1 (stereo not shown) [Example 14, N-(4-Chlorophenyl)-N′-{[4-(3,4-dichlorobenzyl)morpholin-2-yl]methyl}urea]"

# Target: T1, CCR-3
# Assay: Eosinophil chemotaxis assay (eotaxin-induced)
# Assay type: cell-based
# Set-up: Eosinophils were purified from human peripheral blood; endogenous in cells; host or cells: human peripheral blood eosinophils
# Conditions: functional pKi; eosinophils from human peripheral blood; agonist eotaxin; read-out: CCR-3 Eosinophil Chemotaxis Assay (fpKi) (converted)
# Experimental: (b) Eosinophil Chemotaxis Assay.
# Compounds were evaluated for their inhibitory effect on eosinophil chemotaxis. Eosinophils were purified from human peripheral blood by standard CD16 cell depletion using a Miltenyi cell separation column and a magnetic Super Macs magnet as previously described (Motegi & Kita, 1998; J. Immunology. 161:4340–6). Cells were re-suspended in RPMI 1640/10% FCS solution and incubated with calcein-AM (Molecular Probes) at 37° C. for 30 mins. Following incubation, the eosinophils were centrifuged at 400 g for 5 min and re-suspended in RPMI/FCS at 2.2 million/ml. Cells were then incubated in the presence of increasing concentration of compounds (1 pM to 30 μM) at 37° C. for 30 mins. For control responses cells were incubated with RPMI/FCS only. The agonist eotaxin (either a concentration response curve or for the functional inhibition curves an EC80 concentration) was added to the lower chamber of a 96 well chemotaxis plate (5 μm filter: Receptor Technologies). Eosinophils (50 μl of 2 million/ml cells) were added to the top chamber of the filter plate and incubated at 37° C. for 45 mins. Cells remaining on top of the chemotaxis filter were removed and the number of eosinophils which had migrated were quantified by reading the plate on a fluorescent plate reader. Inhibition curves for the effect of compounds on eosinophil chemotaxis were analysed by fitting the data with a four parameter logistic equation. Functional pKi values (fpKi) were generated using the equation below (Lazareno & Birdsall, 1995. Br. J. Pharmacol 109: 1110–9).
row,Compound,Ki [nM]
1,"C#CCNC(=O)NC[C@H]1CN(Cc2ccc(Cl)c(Cl)c2)CCO1 [Example 57, N-{[(2S)-4-(3,4-Dichlorobenzyl)morpholin-2-yl]methyl}-N′-prop-2-ynylurea]",9.77
2,"CNC(=O)c1ccc(CNC(=O)NC[C@H]2CN(Cc3ccc(Cl)c(Cl)c3)CCO2)cc1 [Example 149, 4-({[({[(2S)-4-(3,4-dichlorobenzyl)morpholin-2-yl]methyl}amino)carbonyl]amino}methyl)-N-methylbenzamide]",15.8
3,"NC(=O)c1ccc(CNC(=O)NC[C@H]2CN(Cc3ccc(Cl)c(Cl)c3)CCO2)cc1 [Example 54, 4-({[({[(2S)-4-(3,4-Dichlorobenzyl)morpholin-2-yl]methyl}amino)carbonyl]amino}methyl)benzamide]",15.8
4,"O=C(NCC1CN(Cc2cccc(Cl)c2)CCO1)Nc1ccc(Cl)cc1 (stereo not shown) [Example 26, N-{[4-(3-Chlorobenzyl)morpholin-2-yl]methyl}-N′-(4-chlorophenyl)urea]",1410
5,"O=C(NCC1CN(Cc2cccc3ccccc23)CCO1)Nc1ccc(Cl)cc1 (stereo not shown) [Example 19, N-(4-Chlorophenyl)-N′-{[4-(1 naphthylmethyl)morpholin-2-yl]methyl}urea]",1100
6,"Cn1nnc(CNC(=O)NC[C@H]2CN(Cc3ccc(Cl)c(Cl)c3)CCO2)n1 [Example 136, N-{[(2S)-4-(3,4-dichlorobenzyl)morpholin-2-yl]methyl}-N′-[(2-methyl-2H-tetraazol-5-yl)methyl]urea]",5.01
7,"O=C(NCC1CN(Cc2ccc(Cl)c(Cl)c2)CCO1)Nc1cccc(Cl)c1 (stereo not shown) [Example 13, N-(3-Chlorophenyl)-N′-{[4-(3,4-dichlorobenzyl)morpholin-2-yl]methyl}urea]",407
8,"Cc1cccc(CNC(=O)NCC2CN(Cc3ccc(Cl)c(Cl)c3)CCO2)c1 (stereo not shown) [Example 4, N-{[4-(3,4-Dichlorobenzyl)morpholin-2-yl]methyl}-N′-(3-methylbenzyl)urea]",44.7

# More lines, now with the values ahead:
row,Ki [nM],Compound
1,115,"O=C(NCCc1ccccc1)NCC1CN(Cc2ccc(Cl)c(Cl)c2)CCO1 (stereo not shown) [Example 8, N-{[4-(3,4-Dichlorobenzyl)morpholin-2-yl]methyl}-N′-(2-phenylethyl)urea]"
2,1450,"CSc1cccc(NC(=O)NCC2CN(Cc3ccc(Cl)c(Cl)c3)CCO2)c1 (stereo not shown) [Example 18, N-{[4-(3,4-Dichlorobenzyl)morpholin-2-yl]methyl}-N′-[3-(methylthio)phenyl]urea]"
3,49,"COc1ccc(CNC(=O)NCC2CN(Cc3ccc(Cl)c(Cl)c3)CCO2)cc1 (stereo not shown) [Example 2, N-{[4-(3,4-Dichlorobenzyl)morpholin-2-yl]methyl}-N′-(4-methoxybenzyl)urea]"
4,38.9,"O=C(NCc1cccc(Cl)c1)NCC1CN(Cc2ccc(Cl)c(Cl)c2)CCO1 (stereo not shown) [Example 48, N-(3-Chlorobenzyl)-N′-{[4-(3,4-dichlorobenzyl)morpholin-2-yl]methyl}urea]"
